Test results reported in ChEMBL document CHEMBL1155033, “Catalytic analysis of the validamycin glycosyltransferase (ValG) and enzymatic production of 4''-epi-validamycin A” (J Nat Prod, 2008).
Calls of active or inactive are those of the source. The rule behind the calls is not given here.

Test system: Rhizoctonia solani
Assay: Growth inhibition of Rhizoctonia solani assessed as inhibition of fungal mycelia expansion at 1 mg after 2 days by agar plug assay
Assay type: functional, organism-based

## OCC1=C[C@@H](N[C@H]2C[C@H](CO)[C@@H](O[C@H]3O[C@@H](CO)[C@H](O)[C@@H](O)[C@@H]3O)[C@H](O)[C@H]2O)[C@H](O)[C@@H](O)[C@@H]1O
  Activity: Active
